Test results published in patent publication US10752587B2, “Homobispiperidinyl derivatives as liver X receptor beta agonists, compositions and their use” (Merck Sharp & Dohme Corp., priority 2015, dated 2020).

Assays:
[1] = biological target: T1, glutathione-S-transferase (GST) tagged LXRbeta LBD (ligand binding domain) (Homo sapiens, UniProt P55055); test: LanthaScreen TR-FRET Liver X Receptor Coactivator Assay, co-activator recruitment to LXRbeta LBD; format: biochemical; settings: for Emax: read-out: LXR beta Activity @ max dose (%); for EC50: potency (Inflection Point, IP), co-activator recruitment to LXRbeta LBD, in relation to T0901317, read-out: LXR beta IP
T1 construct: purchased Invitrogen pv4658.pps
T1 sequence (P55055 222-460 limits assumed): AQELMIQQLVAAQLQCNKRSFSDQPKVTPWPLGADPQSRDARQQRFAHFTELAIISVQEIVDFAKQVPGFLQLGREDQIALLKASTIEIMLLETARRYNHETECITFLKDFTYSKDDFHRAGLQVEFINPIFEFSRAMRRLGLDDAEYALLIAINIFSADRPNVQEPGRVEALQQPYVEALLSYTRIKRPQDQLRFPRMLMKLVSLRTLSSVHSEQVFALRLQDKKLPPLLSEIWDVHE
Method in brief: (§1)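 Readout is time-resolved FRET between a terbium anti-GST antibody bound to the LBD and a fluorescein-tagged coactivator peptide recruited on ligand binding. Plates were incubated at room temperature before reading. Potency (IP) and efficacy (Emax) are referenced to T0901317.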

[2] = biological target: T2, glutathione-S-transferase (GST) tagged LXRalpha LBD (ligand binding domain) (Homo sapiens, UniProt Q13133); test: LanthaScreen TR-FRET Liver X Receptor Coactivator Assay, co-activator recruitment to LXRalpha LBD; format: biochemical; settings: for Emax: read-out: LXR alpha Activity @ max dose (%); for EC50 / LXR alpha IP (nM): potency (Inflection Point, IP), co-activator recruitment to LXRalpha LBD, in relation to T0901317; for EC50: read-out: LXR alpha IP
T2 construct: purchased Invitrogen pv4655
T2 sequence (Q13133 209-447 limits assumed): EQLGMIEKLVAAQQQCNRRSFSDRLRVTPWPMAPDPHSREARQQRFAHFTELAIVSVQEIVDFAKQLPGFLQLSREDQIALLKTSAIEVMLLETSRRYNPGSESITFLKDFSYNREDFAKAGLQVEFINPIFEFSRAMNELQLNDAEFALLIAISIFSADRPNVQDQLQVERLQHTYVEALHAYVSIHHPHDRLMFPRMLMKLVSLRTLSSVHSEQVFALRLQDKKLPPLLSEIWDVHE
Method in brief: as §1

[3] = efficacy at max dose, in relation to reference dual agonist T0901317

Row | Structure (SMILES) | Emax [1, 3] [%] | EC50 [1] [nM] | Emax [2, 3] [%] | EC50 [2] [nM] | LXR alpha IP (nM) [2] | LXR beta Activity @ max dose (%) [1, 3] [%] | LXR alpha Activity @ max dose (%) [2, 3] [%]
1 | CN(C)C(=O)c1ccc(N2CCC(OC3CCN(C(=O)C(O)(c4cccc(Cl)c4)C(F)(F)F)CC3)CC2)cc1Cl (stereo not shown) [Example 2-24, 2-chloro-4-[4-({1-[2-(3-chlorophenyl)-3,3,3-trifluoro-2-hydroxy-propanoyl]piperidin-4-yl}oxy)piperidin-1-yl]-N,N-dimethyl-benzamide] | 99 | 14 | 37 | 465 | – | – | –
2 | CC(C)C(O)(C(=O)N1CCC(CC2CCN(c3ccc(C(=O)N(C)C)c(Cl)c3)CC2)CC1)c1ccccc1 (stereo not shown) [Example 2-109, 2-chloro-4-(4-{[1-(2-hydroxy-3-methyl-2-phenylbutanoyl)piperidin-4-yl]methyl}piperidin-1-yl)-N,N-dimethyl-benzamide] | 75 | 72 | 26 | 982 | – | – | –
3 | CNC(=O)c1ccc(N2CCC(CC3CCN(C(=O)C(O)(c4cccnc4)C(F)(F)F)CC3)CC2)nc1Cl (stereo not shown) [Example 7-142, 2-chloro-N-methyl-6-(4-{[1-(3,3,3-trifluoro-2-hydroxy-2-pyridin-3-ylpropanoyl)piperidin-4-yl]methyl}piperidin-1-yl)pyridine-3-carboxamide] | 133 | 99 | 81 | 2550 | – | – | –
4 | CN(C)C(=O)c1ccc(N2CCC(OC3CCN(C(=O)[C@](O)(c4ccccc4)C(F)(F)F)CC3)CC2)cc1Cl [Example 2-21, 2-chloro-N,N-dimethyl-4-[4-({1-[(2R)-3,3,3-trifluoro-2-hydroxy-2-phenylpropanoyl]piperidin-4-yl}oxy)piperidin-1-yl]benzamide] | – | – | – | – | NO IP | 65 | 0
5 | CC(C)Oc1cccc([C@@](O)(C(=O)N2CC(CC3CCN(c4ccc(C(=O)N(C)C)c(Cl)n4)CC3)C2)C(F)(F)F)c1 [Example 7-42, 2-chloro-N,N-dimethyl-6-{4-[(1-{(2R)-3,3,3-trifluoro-2-hydroxy-2-[3-(1-methylethoxy)phenyl]propanoyl}azetidin-3-yl)methyl]piperidin-1-yl}pyridine-3-carboxamide] | 83 | 30 | 9 | – | NO IP | – | –
6 | CNC(=O)c1ccc(N2CCC(CC3CCN(C(=O)[C@](O)(c4cccc(C(F)(F)F)c4)C(F)(F)F)CC3)CC2)nc1Cl [Example 7-150, 2-chloro-N-methyl-6-{4-[(1-{(2R)-3,3,3-trifluoro-2-hydroxy-2-[3-(trifluoromethyl)phenyl]propanoyl}piperidin-4-yl)methyl]piperidin-1-yl}pyridine-3-carboxamide] | 84 | 24 | 42 | 256 | – | – | –
7 | COCCN(C)C(=O)c1ccc(N2CCC(OC3CCN(C(=O)[C@](O)(c4ccccc4)C(F)(F)F)CC3)CC2)cc1Cl [Example 4-14, 2-chloro-N-(2-methoxyethyl)-N-methyl-4-[4-({1-[(2R)-3,3,3-trifluoro-2-hydroxy-2-phenylpropanoyl]piperidin-4-yl}oxy)piperidin-1-yl]benzamide] | 88 | 117 | 42 | 2170 | – | – | –
8 | CNC(=O)c1ccc(N2CCC(CC3CCN(C(=O)[C@](O)(c4cc(Cl)cc(Cl)c4)C(F)(F)F)CC3)CC2)nc1Cl [Example 7-134, 2-chloro-6-[4-({1-[(2R)-2-(3,5-dichlorophenyl)-3,3,3-trifluoro-2-hydroxypropanoyl]piperidin-4-yl}methyl)piperidin-1-yl]-N-methylpyridine-3-carboxamide] | 78 | 9 | 14 | – | NO IP | – | –
9 | CN(C)C(=O)c1ccc(N2CCC(CC3(C)CCN(C(=O)[C@](O)(c4cccc(F)c4)C(F)(F)F)CC3)CC2)cc1Cl [Example 2-57, 2-chloro-N,N-dimethyl-4-[4-({4-methyl-1-[(2R)-3,3,3-trifluoro-2-(3-fluorophenyl)-2-hydroxy-propanoyl]piperidin-4-yl}methyl)piperidin-1-yl]benzamide] | 67 | 5 | 27 | 37 | – | – | –

Further lines, results first:

Row | Emax [1, 3] [%] | EC50 [1] [nM] | Emax [2, 3] [%] | EC50 [2] [nM] | LXR alpha IP (nM) [2] | LXR beta Activity @ max dose (%) [1, 3] [%] | LXR alpha Activity @ max dose (%) [2, 3] [%] | Structure (SMILES)
10 | 55 | 72 | 19 | 1420 | – | – | – | CCC(O)(C(=O)N1CCC(CC2CCN(c3ccc(C(=O)N(C)C)c(Cl)c3)CC2)CC1)c1ccccc1 (stereo not shown) [Example 2-32, 2-chloro-4-(4-{[1-(2-hydroxy-2-phenyl-butanoyl)piperidin-4-yl]methyl}piperidin-1-yl)-N,N-dimethyl-benzamide]
11 | 62 | 18 | 3 | – | NO IP | – | – | COc1cccc([C@@](O)(C(=O)N2CC(CC3CCN(c4ccc(C(=O)N(C)C)c(Cl)c4)CC3)C2)C(F)(F)F)c1 [Example 2-59, 2-chloro-N,N-dimethyl-4-[4-({1-[(2R)-3,3,3-trifluoro-2-hydroxy-2-(3-methoxyphenyl)propanoyl]azetidin-3-yl}methyl)piperidin-1-yl]benzamide]
12 | 60 | 5 | 17 | 251 | – | – | – | CN(C)C(=O)c1ccc(N2CCC(CC3CCN(C(=O)[C@](O)(c4cccc(OC(F)F)c4)C(F)(F)F)CC3)CC2)nc1Cl [Example 7-115, 2-chloro-6-{4-[(1-{(2R)-2-[3-(difluoromethoxy)phenyl]-3,3,3-trifluoro-2-hydroxypropanoyl}piperidin-4-yl)methyl]piperidin-1-yl}-N,N-dimethylpyridine-3-carboxamide]
13 | 79 | – | 25 | – | – | – | – | CN(C)C(=O)c1ccc(N2CCC(CC3CCN(C(=O)[C@](O)(c4ccccc4)C(F)(F)F)CC3)CC2)cc1Cl [Example 2-12, 2-chloro-N,N-dimethyl-4-[4-({1-[(2R)-3,3,3-trifluoro-2-hydroxy-2-phenylpropanoyl]piperidin-4-yl}methyl)piperidin-1-yl]benzamide]
14 | 19 | 10 | 0 | – | NO IP | – | – | COc1cccc([C@@](O)(C(=O)N2CCC(CC3CCN(c4ccc(C(=O)N(C)C)c(Cl)c4)CC3)CC2)C(F)F)c1 [Example 2-106, 2-chloro-4-[4-({1-[(2R)-3,3-difluoro-2-hydroxy-2-(3-methoxy-phenyl)propanoyl]piperidin-4-yl}methyl)piperidin-1-yl]-N,N-dimethyl-benzamide]
15 | 71 | 11 | 17 | – | NO IP | – | – | CN(C)C(=O)c1ccc(N2CCC(CC3CCN(C(=O)[C@](O)(c4csc5ccccc45)C(F)(F)F)CC3)CC2)cc1Cl (stereo in doubt) [Example 2-169, 4-[4-({1-[2-(1-benzothiophen-3-yl)-3,3,3-trifluoro-2-hydroxy-propanoyl]piperidin-4-yl}methyl)piperidin-1-yl]-2-chloro-N,N-dimethyl-benzamide]
16 | 62 | 24 | 22 | 400 | – | – | – | Cc1cc(N2CCC(CC3CCN(C(=O)[C@](O)(c4cccc(C(F)(F)F)c4)C(F)(F)F)CC3)CC2)ccc1C(=O)N(C)C [Example 2-148, N,N,2-trimethyl-4-{4-[(1-{(2R)-3,3,3-trifluoro-2-hydroxy-2-[3-(trifluoromethyl)phenyl]propanoyl}piperidin-4-yl)methyl]piperidin-1-yl}benzamide]
17 | 42 | 21 | 12 | – | NO IP | – | – | CCc1cccc([C@@](O)(C(=O)N2CCC(CC3CCN(c4ccc(C(=O)N(C)C)c(C)c4)CC3)CC2)C(F)(F)F)c1 [Example 2-156, 4-[4-({1-[(2R)-2-(3-ethyl-phenyl)-3,3,3-trifluoro-2-hydroxy-propanoyl]piperidin-4-yl}methyl)piperidin-1-yl]-N,N,2-trimethyl-benzamide]
18 | 73 | 58 | 34 | 1040 | – | – | – | CN(C)C(=O)c1ccc(N2CCC(CC3CCN(C(=O)[C@](O)(c4ccccc4)C(F)(F)F)CC3)CC2)cc1 [Example 2-128, N,N-dimethyl-4-[4-({1-[(2R)-3,3,3-trifluoro-2-hydroxy-2-phenyl-propanoyl]piperidin-4-yl}methyl)piperidin-1-yl]benzamide]
19 | 14 | 238 | 4 | 309 | – | – | – | COc1cc(C)cc([C@@](O)(C(=O)N2CCC(CC3CCN(c4ccc(C(=O)N(C)C)c(Cl)c4)CC3)CC2)C(F)(F)F)c1 [Example 2-107, 2-chloro-N,N-dimethyl-4-[4-({1-[(2R)-3,3,3-trifluoro-2-hydroxy-2-(3-methoxy-5-methylphenyl)propanoyl]piperidin-4-yl}methyl)piperidin-1-yl]benzamide]
